Values joined by “and” are separate entries in the source; they are usually repeats but may differ in a detail not shown here. Equal values may be shown once.
Key:
[1] = biological target: Glycogen synthase kinase-3 beta (Homo sapiens, UniProt P49841); test: TR-FRET Assay
In short: (§1)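 Kinase activity, measured after a 30-minute compound preincubation, was stopped with EDTA and quantified by TR-FRET using a Tb-labelled pSer641 antibody paired with streptavidin-d2.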

[2] = biological target: Glycogen synthase kinase-3 alpha (Homo sapiens, UniProt P49840); test: TR-FRET Assay
Glycogen synthase kinase-3 alpha, sequence (P49840 whole entry): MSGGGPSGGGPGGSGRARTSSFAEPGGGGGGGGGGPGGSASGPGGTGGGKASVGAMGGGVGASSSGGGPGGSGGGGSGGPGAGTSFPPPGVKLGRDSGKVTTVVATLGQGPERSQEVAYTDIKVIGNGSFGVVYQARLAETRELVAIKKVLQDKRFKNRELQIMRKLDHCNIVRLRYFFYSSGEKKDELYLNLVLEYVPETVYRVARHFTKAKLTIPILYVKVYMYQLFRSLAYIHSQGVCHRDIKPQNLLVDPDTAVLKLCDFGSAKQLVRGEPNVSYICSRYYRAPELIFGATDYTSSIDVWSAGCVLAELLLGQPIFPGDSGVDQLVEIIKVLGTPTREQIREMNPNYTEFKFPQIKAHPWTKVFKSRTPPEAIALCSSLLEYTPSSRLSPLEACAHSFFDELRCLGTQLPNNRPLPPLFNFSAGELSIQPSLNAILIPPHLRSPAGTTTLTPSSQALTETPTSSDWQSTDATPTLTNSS
In short: as §1

Glycogen synthase kinase-3 beta, sequence (P49841 whole entry): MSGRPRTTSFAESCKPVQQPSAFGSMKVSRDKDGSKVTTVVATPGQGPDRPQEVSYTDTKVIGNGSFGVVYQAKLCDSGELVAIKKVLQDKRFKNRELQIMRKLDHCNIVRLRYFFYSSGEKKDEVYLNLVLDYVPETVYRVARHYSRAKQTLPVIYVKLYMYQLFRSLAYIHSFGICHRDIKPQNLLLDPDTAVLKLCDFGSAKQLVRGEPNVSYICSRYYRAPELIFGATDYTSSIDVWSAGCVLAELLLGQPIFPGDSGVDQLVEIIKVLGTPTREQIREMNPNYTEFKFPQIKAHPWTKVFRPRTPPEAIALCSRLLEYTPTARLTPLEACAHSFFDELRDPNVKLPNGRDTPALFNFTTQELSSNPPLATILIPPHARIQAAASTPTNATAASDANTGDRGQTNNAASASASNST

SMILES	IC50 [1]	IC50 [2]
CC1(C)CC(=O)C2=C(C1)NC1=C(CN=N1)C21CN(CC(F)(F)F)C1 [US20250313563, Compound 912074]	0.1 to 1 µM	< 0.1 µM
CCC1(c2cccc(C(F)(F)F)c2)C2=C(CC(C)(C)CC2=O)NC2N=NC(Br)=C21 (centres undefined) [US20250313563, Compound 802358]	< 0.1 µM	< 0.1 µM
CC(C)(C)CC1=C2C(N=N1)NC1=C(C(=O)CC(C)(C)C1)[C@@]21CCc2c(F)cccc21 (some centres undefined) [US20250313563, Compound 791257]	< 0.1 µM	< 0.1 µM
Cc1cnccc1[C@H]1CC[C@@]2(CC1)C1=C(N=NC1)NC1=C2C(=O)CC(C)(C)C1 [US20250313563, Compound 949319]	< 0.1 µM	< 0.1 µM
CC[C@@]1(c2cccc(-c3ccnc(C)c3F)c2)C2=CN=NC2NC2=C1C(=O)CC(C)(C)C2 (some centres undefined) [US20250313563, Compound 927347]	< 0.1 µM and 1 to 5 µM	< 0.1 µM and 0.1 to 1 µM
CO[C@H]1CC[C@]2(CC1)C1=C(N=NC1)NC1=C2C(=O)CC(C)(C)C1 [US20250313563, Compound 884120]	0.1 to 1 µM	0.1 to 1 µM
CC[C@@]1(c2cccc(N3CCC[C@H]3C)c2)C2=CN=NC2NC2=C1C(=O)CC(C)(C)C2 (some centres undefined) [US20250313563, Compound 918322]	> 5 µM	> 5 µM
CC[C@@]1(c2ccccc2)C2=C(N=NC2)NC2=C1C(=O)[C@H]1CC[C@@H]2C1 [US20250313563, Compound 791266]	> 5 µM	> 5 µM
CO[C@H]1C[C@]2(C1)C1=C(N=NC1)NC1=C2C(=O)CC(C)(C)C1 [US20250313563, Compound 901472]	> 5 µM	> 5 µM
CC1(C)CC(=O)C2=C(C1)NC1=C(CN=N1)C21CCN(S(=O)(=O)C2CCCCC2)CC1 [US20250313563, Compound 913128]	< 0.1 µM and 0.1 to 1 µM	< 0.1 µM
CC[C@@]1(c2cccc([C@H](C)c3ncccn3)c2)C2=CN=NC2NC2=C1C(=O)CC(C)(C)C2 (some centres undefined) [US20250313563, Compound 948060]	< 0.1 µM and 1 to 5 µM	< 0.1 µM and 0.1 to 1 µM
CCC1(c2cccc(-c3cnn(C)c3C)c2)C2=CN=NC2NC2=C1C(=O)NC(C)(C)C2 (centres undefined) [US20250313563, Compound 944021]	0.1 to 1 µM	< 0.1 µM
CC1(C)CC(=O)C2=C(C1)NC1=C(CN=N1)C21CC2(COC2)C1 [US20250313563, Compound 912168]	> 5 µM	> 5 µM
CC[C@@]1(c2cccc(C)c2)C2=CN=NC2NC2=C1C(=O)CC(C)(C)C2 (some centres undefined) [US20250313563, Compound 789561]	> 5 µM	1 to 5 µM
CC[C@@]1(c2cccc(-c3ccnc(C)c3)c2)C2=CN=NC2NC2=C1C(=O)N[C@@]1(CCOC1)C2 (some centres undefined) [US20250313563, Compound 947406]	0.1 to 1 µM and > 5 µM	< 0.1 µM and 0.1 to 1 µM

Results, then the molecule that gave them:

IC50 [1]	IC50 [2]	SMILES
> 5 µM	1 to 5 µM	CC[C@@]1(c2cccc(C(F)(F)F)c2)C2=CN=NC2NC2=C1C(=O)N(c1ccn(C)n1)CC2 (some centres undefined) [US20250313563, Compound 949836]
1 to 5 µM	0.1 to 1 µM	CC[C@@H]1C[C@]2(CO1)C1=C(N=NC1)NC1=C2C(=O)CC(C)(C)C1 [US20250313563, Compound 913213]
> 5 µM	1 to 5 µM	CC[C@]1(c2cccc(C3=C4CC=CC(F)=C4N=CC3)c2)C2=CN=NC2NC2=C1C(=O)NC(C)(C)C2 (some centres undefined) [US20250313563, Compound 948813]
0.1 to 1 µM	< 0.1 µM	CCC1(c2cccc(N3CC4CCC3CC4)c2)C2=CN=NC2NC2=C1C(=O)CC(C)(C)C2 (centres undefined) [US20250313563, Compound 885120]
< 0.1 µM	< 0.1 µM	C[C@H]1C[C@@]2(CCN1S(C)(=O)=O)C1=CN=NC1NC1=C2C(=O)CC(C)(C)C1 (some centres undefined) [US20250313563, Compound 926827]
0.1 to 1 µM	< 0.1 µM	CC[C@@]1(c2cccc(C(F)(F)F)c2)C2=C(CCN(c3ccc(OC)cc3)C2=O)NC2N=NC(C)=C21 (some centres undefined) [US20250313563, Compound 948226]
> 5 µM	> 5 µM	COCCN1CC2(C1)C1=C(N=NC1)NC1=C2C(=O)CC(C)(C)C1 [US20250313563, Compound 943544]

— BindingDB's records for patent US20250313563 (The Broad Institute, 2025)
